Target: mGluR2-mGluR2 dimer (Rattus norvegicus, UniProt P31421)
Settings: for change in TRF520 signal in the presence of the compound: delay 50 μs, integration time 450 μs, BG-Lumi4-Tb/BC-fluorescein, dose-dependent; for maximum variation of TRF520 signal: dose-response up to 100 μM DCG-IV / 316 μM glutamate

mGluR2-mGluR2 dimer, sequence (P31421 23-872): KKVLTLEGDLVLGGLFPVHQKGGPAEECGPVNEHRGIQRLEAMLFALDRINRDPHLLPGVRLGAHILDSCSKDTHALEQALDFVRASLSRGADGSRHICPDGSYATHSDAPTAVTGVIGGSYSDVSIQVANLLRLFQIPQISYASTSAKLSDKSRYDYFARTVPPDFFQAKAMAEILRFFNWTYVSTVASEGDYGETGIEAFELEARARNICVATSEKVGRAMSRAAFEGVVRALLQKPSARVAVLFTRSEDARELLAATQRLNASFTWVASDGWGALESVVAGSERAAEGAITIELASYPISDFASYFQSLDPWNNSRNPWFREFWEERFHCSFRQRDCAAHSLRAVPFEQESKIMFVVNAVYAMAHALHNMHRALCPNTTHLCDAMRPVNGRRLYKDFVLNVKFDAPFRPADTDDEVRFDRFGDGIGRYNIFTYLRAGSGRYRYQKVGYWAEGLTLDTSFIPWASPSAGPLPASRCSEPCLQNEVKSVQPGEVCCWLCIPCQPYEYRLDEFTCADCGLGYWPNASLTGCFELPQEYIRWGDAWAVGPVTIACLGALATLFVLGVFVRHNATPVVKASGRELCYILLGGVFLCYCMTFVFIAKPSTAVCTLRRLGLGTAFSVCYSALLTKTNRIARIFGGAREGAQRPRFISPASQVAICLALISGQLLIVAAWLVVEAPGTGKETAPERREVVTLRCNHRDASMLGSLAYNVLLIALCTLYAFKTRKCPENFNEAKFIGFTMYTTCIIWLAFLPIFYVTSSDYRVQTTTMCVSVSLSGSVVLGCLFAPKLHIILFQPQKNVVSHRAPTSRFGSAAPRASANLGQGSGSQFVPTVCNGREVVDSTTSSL
mGluR2-mGluR2 dimer, sequence (P31421 23-872): as above

Structure (SMILES)	change in TRF520 signal in the presence of the compound	maximum variation of TRF520 signal	EC50 (read-out: concentration necessary for obtaining a variation equal to half the maximum variation (close to the pharmacological EC50), TRF520 signal, printed value is given as the pharmacological EC50)	TRF520 signal for a given glutamate concentration, in the presence versus absence of the modulator (4-MPPTS 10 μM, glutamate 1-1000 μM)	variation in TRF520 (glutamate 100 μM, in the absence of the antagonist LY341495)
N[C@H](C(=O)O)C1[C@@H](C(=O)O)[C@@H]1C(=O)O (stereo partly shown) [DCG-IV]	inhibiting the TRF520 signal in a dose-dependent manner	30%	~400 nM		
COc1ccccc1Oc1ccc(N(Cc2cccnc2)S(=O)(=O)CC(F)(F)F)cc1 [4-MPPTS]				greater decrease in signal	
N[C@@H](CCC(=O)O)C(=O)O [glutamate, L-glutamic acid]	decrease in TRF520	50%			50%
